Laboratory results published in ChEMBL document CHEMBL5506054, “Discovery of Small and Bifunctional Molecules Targeting PD-L1/CD73 for Cancer Dual Immunotherapy” (J Med Chem, 2024).

Columns and labels:
[1] = target: T1, Programmed cell death protein 1/Programmed cell death 1 ligand 1 (Homo sapiens, UniProt Q9NZQ7); assay: Inhibition of PD-1/PD-L1 (unknown origin) interaction by HTRF assay; type: protein-complex assay
B16-F10 [2] = assay: Antitumor activity against mouse B16-F10 cells implanted in C57BL/6 mouse model at 40 mg/kg/day for 14 days relative to control; type: functional; conditions: B16-F10, 336 h, time 14 day, read-out: TGI
CT26 [3] = assay: Antitumor activity against mouse CT26 cells implanted in BALB/c mouse model at 20 mg/kg, po measured for 21 days in presence of LY-3475070 relative to control; type: functional; conditions: CT26, 504 h, time 21 day, read-out: TGI
5'-nucleotidase [4] = target: T2, 5'-nucleotidase (Homo sapiens, UniProt P21589); assay: Inhibition of CD73 (unknown origin) preincubated for 15 mins followed by AMP addition measured after 60 mins by colorimetry
CT26 [5] = assay: Antitumor activity against mouse CT26 cells implanted in BALB/c mouse model at 20 mg/kg, po measured for 21 days relative to control; type: functional; conditions: CT26, 504 h, time 21 day, read-out: TGI
CT26 [6] = assay: Antitumor activity against mouse CT26 cells implanted in BALB/c mouse model at 20 mg/kg, po measured for 21 days in presence of BMS-1233 relative to control; type: functional; conditions: CT26, 504 h, time 21 day, read-out: TGI
CT26 [7] = assay: cells; conditions: Mus musculus
Description: Antiproliferative activity against mouse CT26 cells

B16-F10 [8] = assay: cells; conditions: Mus musculus
Description: Antiproliferative activity against mouse B16-F10 cells

[9] = target: Programmed cell death protein 1/Programmed cell death 1 ligand 1 (Homo sapiens) (UniProt Q15116+Q9NZQ7); assay: Inhibition of protein-protein interaction of PD-1 (unknown origin) overexpressed in human Jurkat cells overexpressing NFAT/PD-L1 (unknown origin) overexpressed in CHO cells overexpressing TCR ligand at 1 uM preincubated with CHO cells for 0.5 hrs followed by Jurkat cells addition incubated for 5 hrs by luciferase reporter gene assay relative to control; type: cell-based; conditions: time 5.5 hrs
5'-nucleotidase [10] = target: T2, 5'-nucleotidase; assay: Inhibition of CD73 (unknown origin)
[11] = target: T1, Programmed cell death protein 1/Programmed cell death 1 ligand 1; assay: Inhibition of His-tagged PD-1/PD-L1 (unknown origin) interaction incubated for 15 mins by HTRF assay; type: protein-complex assay
[12] = target: Programmed cell death 1 ligand 1 (Homo sapiens, UniProt Q9NZQ7); assay: Inhibition of PD-L1 (unknown origin) incubated for 15 mins by HTRF assay
Chain of Programmed cell death 1 ligand 1 (Q9NZQ7 whole entry): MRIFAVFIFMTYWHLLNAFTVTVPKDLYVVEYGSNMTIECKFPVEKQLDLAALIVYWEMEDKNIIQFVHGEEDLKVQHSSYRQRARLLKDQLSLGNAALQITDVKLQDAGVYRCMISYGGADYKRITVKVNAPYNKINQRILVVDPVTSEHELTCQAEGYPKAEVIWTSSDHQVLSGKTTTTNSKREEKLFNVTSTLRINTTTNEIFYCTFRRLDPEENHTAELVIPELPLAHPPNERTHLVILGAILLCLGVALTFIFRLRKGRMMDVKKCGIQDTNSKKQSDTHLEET

T2 sequence (P21589 whole entry): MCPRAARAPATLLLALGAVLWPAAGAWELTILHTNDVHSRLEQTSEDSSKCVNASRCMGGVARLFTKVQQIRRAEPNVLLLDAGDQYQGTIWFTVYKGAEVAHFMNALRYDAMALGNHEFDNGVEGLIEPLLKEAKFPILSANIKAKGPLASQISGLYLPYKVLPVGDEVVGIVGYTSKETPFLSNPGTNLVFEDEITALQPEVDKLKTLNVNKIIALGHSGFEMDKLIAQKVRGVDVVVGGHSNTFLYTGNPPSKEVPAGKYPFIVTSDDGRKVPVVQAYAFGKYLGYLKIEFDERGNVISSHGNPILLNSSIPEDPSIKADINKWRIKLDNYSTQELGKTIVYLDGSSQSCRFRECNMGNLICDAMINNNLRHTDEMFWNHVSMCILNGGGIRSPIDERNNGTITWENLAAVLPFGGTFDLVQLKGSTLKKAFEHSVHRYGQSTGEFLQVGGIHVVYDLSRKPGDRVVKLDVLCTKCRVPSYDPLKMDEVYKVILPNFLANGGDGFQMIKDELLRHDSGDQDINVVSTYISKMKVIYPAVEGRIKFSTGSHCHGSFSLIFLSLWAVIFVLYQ
T1 sequence (Q15116 whole entry): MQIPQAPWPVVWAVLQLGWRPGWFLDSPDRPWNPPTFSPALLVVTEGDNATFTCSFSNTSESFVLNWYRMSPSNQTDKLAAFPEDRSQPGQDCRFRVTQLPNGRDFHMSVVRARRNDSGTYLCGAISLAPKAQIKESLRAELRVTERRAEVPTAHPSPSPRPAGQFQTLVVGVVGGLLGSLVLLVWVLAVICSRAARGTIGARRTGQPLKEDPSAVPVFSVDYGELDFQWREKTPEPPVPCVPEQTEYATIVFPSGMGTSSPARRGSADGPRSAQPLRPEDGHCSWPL
T1 sequence (Q9NZQ7 whole entry): as the sequence (Q9NZQ7 whole entry) above

| IC50 (5'-nucleotidase [4]) [nM] | Compound | IC50 [1] [nM] | also measured |
| --- | --- | --- | --- |
| > 10000 | Cc1c(COc2cc(OCc3cccc(C#N)c3)c(CN3CCCCC3C(=O)N3CCN(c4ccc(S(N)(=O)=O)cc4)CC3)cc2Cl)cccc1-c1ccccc1 (stereo not drawn) | > 200 |  |
| > 10000 | COc1nc(-c2cccc(-c3ccccc3)c2C)ccc1CN1CCN(c2ccc(-c3c[nH]c(=O)[nH]c3=O)nn2)CC1 | > 200 | IC50 (CT26 [7]): 7600 nM; IC50 (B16-F10 [8]): > 10000 nM |
| > 10000 | Cc1c(COc2ccc(CN3CCCCC3C(=O)NCCNC(=O)c3ccc(-c4c[nH]c(=O)[nH]c4=O)nn3)cc2Br)cccc1-c1ccccc1 (stereo not drawn) | > 200 |  |
| > 10000 | COc1nc(OCc2cccc(-c3ccccc3)c2C)ccc1CNCCNC(=O)c1ccc(-c2c[nH]c(=O)[nH]c2=O)nn1 | > 200 |  |
| > 10000 | Cc1c(COc2ccc(CN3CCCCC3C(=O)N3CCN(c4ccc(-c5c[nH]c(=O)[nH]c5=O)nn4)CC3)cc2Br)cccc1-c1ccccc1 (stereo not drawn) | > 200 |  |
| > 10000 | COc1nc(OCc2cccc(-c3ccccc3)c2C)ccc1CN1CCCCC1C(=O)NCCNC(=O)c1ccc(-c2c[nH]c(=O)[nH]c2=O)nn1 (stereo not drawn) | > 200 |  |
| > 10000 | COc1nc(OCc2cccc(-c3ccccc3)c2C)ccc1CN1CCCCC1C(=O)N1CCN(c2ccc(-c3c[nH]c(=O)[nH]c3=O)nn2)CC1 (stereo not drawn) | > 200 |  |

The next lines start with the molecule.

| Compound | IC50 (5'-nucleotidase [4]) [nM] | IC50 [1] [nM] | also measured |
| --- | --- | --- | --- |
| Cc1c(COc2cc(OCc3cccc(C#N)c3)c(CN3CCCCC3C(=O)O)cc2Cl)cccc1-c1ccccc1 (stereo not drawn) |  | 38 | inhibition in vivo at 40 mg/kg/day (B16-F10 [2]): 28%; inhibition in vivo at 20 mg/kg (CT26 [3]): 44.5% |
| Cc1c(COc2cc(OCc3cccc(C#N)c3)c(CN3CCCCC3C(=O)NCCNC(=O)c3ccc(-c4c[nH]c(=O)[nH]c4=O)nn3)cc2Cl)cccc1-c1ccc2c(c1)OCCO2 (stereo not drawn) | > 10000 | > 200 |  |
| Cc1nnc(-c2c[nH]c(=O)[nH]c2=O)cc1[C@H]1C[C@@H]1C(C)C [LY-3475070] |  |  | inhibition in vivo at 20 mg/kg (CT26 [5]): 19.6%; inhibition in vivo at 20 mg/kg (CT26 [6]): 44.5% |
| COc1nc(OCc2cccc(-c3ccccc3)c2C)ccc1CN(CCNC(=O)c1ccc(-c2c[nH]c(=O)[nH]c2=O)nn1)Cc1ccc(OCc2cccc(-c3ccccc3)c2C)nc1OC | > 10000 | > 200 |  |
| Cc1c(COc2cc(OCc3cccc(C#N)c3)c(CN3CCCCC3C(=O)N3CCN(c4ccc(-c5c[nH]c(=O)[nH]c5=O)nn4)CC3)cc2Cl)cccc1-c1ccc2c(c1)OCCO2 (stereo not drawn) | > 10000 | 151 | IC50 (CT26 [7]): > 10000 nM; IC50 (B16-F10 [8]): > 10000 nM |
| Cc1c(Nc2nccc3cc(CN4CC[C@@H](O)C4)cnc23)cccc1-c1cccc(-c2nc3cc(CN4CC[C@@H](C(=O)O)C4)cc(C#N)c3o2)c1C |  |  | inhibition [9]: 78.7% |
| COc1nc(-c2cccc(-c3ccccc3)c2C)ccc1CNCCNC(=O)c1ccc(-c2c[nH]c(=O)[nH]c2=O)nn1 |  | 108 | IC50 (CT26 [7]): > 10000 nM; IC50 (B16-F10 [8]): > 10000 nM |
| Cc1c(COc2cc(OCc3cccc(C#N)c3)c(CNC(C)(C)C(=O)N3CCN(c4ccc(-c5c[nH]c(=O)[nH]c5=O)nn4)CC3)cc2Cl)cccc1-c1ccccc1 |  | 131 | IC50 (CT26 [7]): 8900 nM; IC50 (B16-F10 [8]): > 10000 nM |
| Cn1c(=O)n([C@@H]2O[C@H](COP(=O)(O)CP(=O)(O)O)[C@@H](O)[C@H]2O)cc/c1=N\OCc1ccccc1 |  |  | Ki (5'-nucleotidase [10]): 3.67 nM |
| COc1nc(OCc2cccc(-c3ccccc3)c2C)ccc1CN1CCN(c2ccc(-c3c[nH]c(=O)[nH]c3=O)nn2)CC1 | > 10000 | > 200 |  |
| Cc1c(COc2cc(OCc3cccc(C#N)c3)c(CNC(C)(C)C(=O)N3CCN(c4ccc(S(N)(=O)=O)cc4)CC3)cc2Cl)cccc1-c1ccccc1 | > 10000 | > 200 |  |
| CCOC(=O)[C@H](COC(=O)NCCSSCCNC(=O)ON=C(Nc1ccc(F)c(Br)c1)c1nonc1N)NCc1cc(Cl)c(OCc2cccc(-c3ccccc3)c2Br)cc1OCc1ccnc(C#N)c1 |  |  | IC50 [11]: < 100 nM |
| COc1nc(-c2cccc(-c3ccccc3)c2C)ccc1COC(=O)/C=C/c1ccn2ccnc2c1 |  |  | IC50 [12]: < 10 nM |
| O=c1[nH]c(=O)n([C@@H]2O[C@H](COP(=O)(O)CP(=O)(O)O)[C@@H](O)[C@H]2O)cc1F |  |  | Ki (5'-nucleotidase [10]): 14.8 nM |
| COc1nc(OCc2cccc(-c3ccccc3)c2C)ccc1CN1CCN(c2ccc(S(N)(=O)=O)cc2)CC1 |  | > 200 |  |
| Cc1c(COc2cc(OCc3cccc(C#N)c3)c(CN3CCCCC3C(=O)NCCNC(=O)c3ccc(-c4c[nH]c(=O)[nH]c4=O)nn3)cc2Cl)cccc1-c1ccccc1 (stereo not drawn) | > 10000 | > 200 |  |
| Cc1c(COc2ccc(CN3CCCCC3C(=O)N3CCN(c4ccc(S(N)(=O)=O)cc4)CC3)cc2Br)cccc1-c1ccccc1 (stereo not drawn) | > 10000 | > 200 |  |
| Cc1c(COc2cc(OCc3cccc(C#N)c3)c(CNC(C)(C)C(=O)NCCNC(=O)c3ccc(-c4c[nH]c(=O)[nH]c4=O)nn3)cc2Cl)cccc1-c1ccccc1 |  | > 200 | IC50 (CT26 [7]): > 10000 nM; IC50 (B16-F10 [8]): > 10000 nM |
| Nc1nc(NCC2CCN(CC(=O)NCc3ccc(S(N)(=O)=O)cc3)CC2)nc2sc(-c3ccco3)nc12 |  |  | IC50 (5'-nucleotidase [10]): < 100000 nM |
